Test system: powdery mildew of wheat (Erysiphe graminis forma specialis tritici)
Assay: Activity against powdery mildew of wheat (protective spray test on potted seedlings)
Assay type: in vivo
Conditions: evaluated after 7 days
Method: The active ingredients, separately or together, are formulated as 10% emulsion in a mixture of 63% by weight of cyclohexanone and 27% by weight of emulsifier, and diluted with water to the desired concentration.
Evaluation is carried out by determining the infected leaf areas in percent. These percentages are converted into efficacies. The efficacy (W) is calculated as follows using Abbot's formula: […]
α corresponds to the fungal infection of the treated plants in % and β corresponds to the fungal infection of the untreated (control) plants in % An efficacy of 0 means that the infection level of the treated plants corresponds to that of the untreated control plants; an efficacy of 100 means that the treated plants were not infected.
The expected efficacies of the mixtures of the active ingredients were determined using Colby's formula [R. S. Colby, Weeds 15, 20-22 (1967)] and compared with the observed efficacies.
Colby formula: E=x+y −x·y/100
E expected efficacy, expressed in % of the untreated control, when using the mixture of the active ingredients A and B at the concentrations a and b x efficacy, expressed in % of the untreated control, when using active ingredient A at a concentration of a y efficacy, expressed in % of the untreated control, when using active ingredient B at a concentration of b Leaves of potted […] seedlings of the variety “Fruhgold” were sprayed to runoff point with an aqueous formulation of active ingredient prepared from a stock solution consisting of 10% of active ingredient, 63% of cyclohexanone and 27% of emulsifier. 24 hours after the spray coating had dried on, the leaves were dusted with spores of powdery mildew of wheat (Erysiphe graminis forma specialis tritici). The test plants were subsequently kept in a greenhouse at 20-24° C. and 60-90% relative atmospheric humidity. After 7 days, the extent of the mildew development was determined visually in % infection of the total leaf area.

[1] = 16 ppm active ingredient in the spray liquor
[2] = 63 ppm active ingredient in the spray liquor

Row | SMILES | Efficacy in % of the untreated control [1] [%] | Efficacy in % of the untreated control [2] [%]
1 | O=C(Nc1ccccc1-c1ccc(F)cc1)c1cccnc1Cl [I.1] | 0 | 0
2 | O=C(Nc1ccccc1-c1ccc(Cl)cc1)c1cccnc1Cl [I.2] | 0 | 0

— US6489348B1, “Fungicidal mixtures based on amide compounds and pyridine derivatives” (BASF Aktiengesellschaft, priority 1997, dated 2002)
